Data from US20110028447A1, “INDAZOLE DERIVATIVES” (Pfizer Inc., priority 2008, published 2011).
Where two headings read alike, the source gives them in different places.

Key:
[1] = target: T1, human CB1 receptor (Homo sapiens, UniProt P21554); assay: [35S] GTPγS binding on membranes of CHO cells expressing the human CB1 receptor (agonism); assay type: biochemical; design: expressed in transfected cells; membrane preparation
Description: Membrane preparation: CHO cells expressing the human CB1 receptor were grown to 80% confluence in Ham's F-12 Nutrient Medium (Invitrogen) containing 10% fetal bovine serum (Invitrogen), 1% pen/strep (Invitogen), 1% Nonessential amino acids (Invitrogen) and 500 μg/ml G418 (Invitrogen). Cells were released from flasks using Cell Dissociation Buffer (Invitrogen). Cells were pelleted by centrifugation at 500×G for 5 minutes. Membranes were prepared by resuspending cells in ice cold Assay Buffer (25 mM Tris pH 7.4, 5 mM EDTA, 5 mM EGTA, Complete Protease Inhibitor (Roche)). Cells were lysed with 12 strokes of a dounce homogenizer. Unlysed cells were pelleted by centrifugation at 500×G for 5 minutes. Membranes were pelleted by centrifugation at 25,000×G for 30 minutes. Membranes were resuspended in TEE, dounced 12 strokes, and pelleted a second time at 25,000×G for 30 minutes. Membrane pellet was resuspended in 50 mM Tris pH 7.4, 100 mM NaCl, 3 mM MgCl2, 0.2 mM EGTA, Complete Protease Inhibitor (Roche). Protein concentration was determined using the Micro-BCA Protein Assay Kit (Pierce) using BSA as a standard. Membranes were frozen and stored at −80 degrees Celsius until use.
GTPγS Binding: 40 μl of test compound was incubated with 20 μl of [^35S] GTPγS (Perkin Elmer) (1250 Ci/millimole) and 140 μl of membrane homogenate (5 μg/well) in polypropylene 96-well plates (Corning). Final reaction conditions were 50 mM Tris pH 7.4, 100 mM NaCl, 3 mM MgCl2, 0.2 mM EGTA, 0.04% BSA. After incubation at 37 degrees Celsius for 45 minutes reactions were harvested by vacuum filtration through Unifilter GF/B-96 filters (Perkin Elmer) using a FilterMate Plate Harvester (Perkin Elmer). Filters were rinsed 4 times with ice cold 50 mM Tris pH 7.4, 3 mM MgCl2, 0.2 mM EGTA and dried at 50 degrees Celsius for at least 30 minutes. 40 μl of Microscint-20 (Perkin Elmer) was added per well, and plates were counted using a Top-Count Microplate Scintillation Counter (Perkin Elmer). Binding data were analyzed and EC50 values were calculated using Graph Pad Prism 4.0 Software.

[2] = target: T1, human CB1 receptor; assay: Human CB1 receptor binding, [3H] CP-55,940 displacement on HEK cell membranes; design: expressed in transfected cells; host or cells: HEK cells, doxycycline-induced; membrane preparation
Method in brief: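 Membranes from doxycycline-induced HEK cells expressing human CB1 incubated 60 min at room temperature with [3H] CP-55,940 (final […]) in 50 mM Tris pH 7.4, 100 mM NaCl, 3 mM MgCl2, 0.2 mM EGTA, 0.04% BSA. Nonspecific binding defined with 50 μM WIN-55,212-2; filtration and scintillation counting gave EC50 and Ki.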

[3] = GTPγS EC50, human CB1, CHO cell membranes
[4] = human CB1, CHO cell membranes, read-out: GTPγS EC50

T1 sequence (P21554 whole entry): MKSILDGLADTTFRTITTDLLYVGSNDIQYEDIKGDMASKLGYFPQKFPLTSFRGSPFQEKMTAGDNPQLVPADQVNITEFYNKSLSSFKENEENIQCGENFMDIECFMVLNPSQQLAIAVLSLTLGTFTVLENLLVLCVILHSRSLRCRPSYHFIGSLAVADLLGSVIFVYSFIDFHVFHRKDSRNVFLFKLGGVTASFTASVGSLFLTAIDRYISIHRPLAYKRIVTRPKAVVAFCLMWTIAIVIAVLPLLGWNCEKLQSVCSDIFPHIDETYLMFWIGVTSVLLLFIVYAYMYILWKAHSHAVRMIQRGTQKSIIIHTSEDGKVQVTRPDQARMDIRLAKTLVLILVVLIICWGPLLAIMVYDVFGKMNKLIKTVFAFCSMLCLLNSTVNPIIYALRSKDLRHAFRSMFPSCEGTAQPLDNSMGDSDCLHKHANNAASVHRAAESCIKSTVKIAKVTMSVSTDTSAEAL

| Structure (SMILES) | EC50 [1, 3] | Ki ([2]; CB1 Ki) | EC50 [1, 4] | Ki ([2]; read-out: CB1 Ki) |
| --- | --- | --- | --- | --- |
| CC(C)(C)C(NC(=O)c1nn(Cc2ccc(F)cc2)c2c(F)cccc12)C(N)=O (stereo not shown) [Example 175] | 0.64 nM | 0.19 nM | – | – |
| CC(C)(C)C(NC(=O)c1nn(Cc2ccc(F)cc2)c2c(F)cccc12)C(=O)NC1CC1 (stereo not shown) [Example 176] | 0.51 nM | 0.22 nM | – | – |
| CC(C)(C)C(NC(=O)c1nn(Cc2ccc(F)cc2)c2c(F)cccc12)C(=O)NCCO (stereo not shown) [Example 177] | 0.31 nM | 0.28 nM | – | – |
| CC(C)(C)C(NC(=O)c1nn(Cc2ccc(F)cc2)c2c(F)cccc12)C(=O)NCCCO (stereo not shown) [Example 178] | 1.61 nM | 0.56 nM | – | – |
| CC(C)(C)C(NC(=O)c1nn(Cc2ccc(F)cc2)c2c(F)cccc12)C(=O)NCC(N)=O (stereo not shown) [Example 179] | 5.41 nM | 0.87 nM | – | – |
| CC(C)(C)C(NC(=O)c1nn(Cc2ccc(F)cc2)c2c(F)cccc12)C(=O)NCc1nnc(C(N)=O)o1 (stereo not shown) [Example 180] | – | – | 3.81 nM | 0.37 nM |
| CC(C)(C)C(NC(=O)c1nn(Cc2ccc(F)cc2)c2c(Cl)cccc12)C(N)=O (stereo not shown) [Example 181] | 0.33 nM | 0.1 nM | – | – |
| CC(C)(C)C(NC(=O)c1nn(Cc2ccc(F)cc2)c2c(Cl)cccc12)C(=O)NC1CC1 (stereo not shown) [Example 182] | 2.23 nM | 0.34 nM | – | – |
| CC(C)(C)C(NC(=O)c1nn(Cc2ccc(F)cc2)c2c(Cl)cccc12)C(=O)NCCO (stereo not shown) [Example 183] | 0.83 nM | 0.26 nM | – | – |
| CC(C)(C)C(NC(=O)c1nn(Cc2ccc(F)cc2)c2c(Cl)cccc12)C(=O)NCCCO (stereo not shown) [Example 184] | 3.94 nM | 0.37 nM | – | – |
| CC(C)(C)C(NC(=O)c1nn(Cc2ccc(F)cc2)c2c(Cl)cccc12)C(=O)NCC(N)=O (stereo not shown) [Example 185] | 10.2 nM | 0.51 nM | – | – |
| CC(C)(C)C(NC(=O)c1nn(Cc2ccc(F)cc2)c2c(F)cccc12)C(=O)NCCNS(=O)(=O)C1CC1 (stereo not shown) [Example 186] | – | – | 1.03 nM | 0.19 nM |
| CC(C)(C)[C@H](NC(=O)c1nn(Cc2ccc(F)cc2)c2c(Cl)cccc12)C(=O)NCCNS(=O)(=O)C1CC1 [Example 187] | – | – | 1.09 nM | 0.09 nM |
| CC(C)(C)C(NC(=O)c1nn(Cc2ccc(C#N)cc2)c2c(Cl)cccc12)C(=O)NC1CC1 (stereo not shown) [Example 198] | 7.07 nM | 1.19 nM | – | – |
| CC(C)(C)C(NC(=O)c1nn(Cc2ccc(C#N)cc2)c2c(Cl)cccc12)C(=O)NCCO (stereo not shown) [Example 199] | 8.94 nM | 1.32 nM | – | – |
| CC(C)(C)C(NC(=O)c1nn(Cc2ccc(C#N)cc2)c2c(Cl)cccc12)C(=O)NCCCO (stereo not shown) [Example 200] | 35 nM | 4.8 nM | – | – |
| CC(C)(C)C(NC(=O)c1nn(Cc2ccc(C#N)cc2)c2c(Cl)cccc12)C(=O)NCC(N)=O (stereo not shown) [Example 201] | 70.1 nM | 14.2 nM | – | – |
| CC(C)(C)C(NC(=O)c1nn(Cc2ccc(C#N)cc2)c2c(Cl)cccc12)C(=O)NCCNS(=O)(=O)C1CC1 (stereo not shown) [Example 202] | – | – | 3.07 nM | 0.8 nM |
| CC(C)(C)C(NC(=O)c1nn(Cc2ccc(C#N)cc2)c2c(Cl)cccc12)C(=O)NCC(O)CO (stereo not shown) [Example 203] | 63.2 nM | 10.2 nM | – | – |
| CC(C)(C)[C@H](NC(=O)c1nn(Cc2ccc(F)cc2)c2ccccc12)C(=O)NCC1CCOCC1 [Example 211] | 18.3 nM | 3.08 nM | – | – |
| CC(C)(C)[C@H](NC(=O)c1nn(Cc2ccc(C#N)cc2)c2c(F)cccc12)C(=O)N1Cc2ccccc2C1 [Example 213] | – | – | 57.7 nM | 15.7 nM |
| CC(C)(C)[C@H](NC(=O)c1nn(Cc2ccc(C#N)cc2)c2c(F)cccc12)C(=O)N1CC(O)C1 [Example 214] | 23.4 nM | 3.87 nM | – | – |
| CC(C)(C)[C@H](NC(=O)c1nn(Cc2ccc(C#N)cc2)c2c(F)cccc12)C(=O)N[C@@H](CO)c1ccccc1 [Example 215] | – | – | 41.3 nM | 7.69 nM |
